The values below come from ChEMBL document CHEMBL1201862, “PubChem BioAssay data set” (2004).

Usually Ki stands for the equilibrium dissociation constant of an inhibitor or competing ligand from its target. The term EC50 denotes the concentration at which the effect is half-maximal.

Activity calls are given as the source filed them.

Experiment [1] concerns the target Cyclin-dependent kinase 8 (Homo sapiens, UniProt P49336). Description: Navigating the Kinome. Panel member name: CDK8. The format is functional.
Experiment [2] concerns the target Serine/threonine-protein kinase TAO1 (Homo sapiens, UniProt Q7L7X3). The class given is functional.
In experiment [3] the target is Cyclin-dependent kinase 5 (Homo sapiens, UniProt Q00535). The format is functional.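 Also: CDK5 measured as one member of a kinase profiling panel.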
Cyclin-dependent kinase 5, sequence (Q00535 whole entry, canonical isoform): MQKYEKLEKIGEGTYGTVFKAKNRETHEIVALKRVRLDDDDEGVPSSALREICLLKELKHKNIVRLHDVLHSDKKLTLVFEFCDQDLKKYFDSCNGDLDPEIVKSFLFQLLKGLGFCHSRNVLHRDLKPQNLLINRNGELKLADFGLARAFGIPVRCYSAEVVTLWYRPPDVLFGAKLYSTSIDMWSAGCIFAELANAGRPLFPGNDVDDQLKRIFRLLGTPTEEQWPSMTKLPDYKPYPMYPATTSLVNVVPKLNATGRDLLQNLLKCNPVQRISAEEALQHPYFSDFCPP
For experiment [4], the target named is Casein kinase I isoform alpha (Homo sapiens, UniProt P48729). The class given is functional.
Casein kinase I isoform alpha, sequence (P48729 whole entry, canonical isoform): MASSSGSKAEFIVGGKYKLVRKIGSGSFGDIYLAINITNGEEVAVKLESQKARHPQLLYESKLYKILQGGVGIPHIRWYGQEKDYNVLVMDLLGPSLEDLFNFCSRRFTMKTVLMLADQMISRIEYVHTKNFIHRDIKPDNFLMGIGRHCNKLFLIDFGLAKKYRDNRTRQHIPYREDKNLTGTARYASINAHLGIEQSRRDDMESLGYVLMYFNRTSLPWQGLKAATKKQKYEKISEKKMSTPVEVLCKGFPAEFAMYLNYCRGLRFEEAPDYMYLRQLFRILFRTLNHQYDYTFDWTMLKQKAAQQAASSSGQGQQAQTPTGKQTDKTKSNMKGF
For experiment [5], the target named is Melanin-concentrating hormone receptor 1 (Homo sapiens, UniProt Q99705). Description: Late-stage fluorescence-based counterscreen for antagonists of the G-protein coupled receptor 7 (GPR7): cell-based dose response assay to identify antagonists of the melanin-concentrating hormone receptor 1 (MCHR1) Set 6. The class given is functional.
Melanin-concentrating hormone receptor 1, sequence (Q99705 whole entry): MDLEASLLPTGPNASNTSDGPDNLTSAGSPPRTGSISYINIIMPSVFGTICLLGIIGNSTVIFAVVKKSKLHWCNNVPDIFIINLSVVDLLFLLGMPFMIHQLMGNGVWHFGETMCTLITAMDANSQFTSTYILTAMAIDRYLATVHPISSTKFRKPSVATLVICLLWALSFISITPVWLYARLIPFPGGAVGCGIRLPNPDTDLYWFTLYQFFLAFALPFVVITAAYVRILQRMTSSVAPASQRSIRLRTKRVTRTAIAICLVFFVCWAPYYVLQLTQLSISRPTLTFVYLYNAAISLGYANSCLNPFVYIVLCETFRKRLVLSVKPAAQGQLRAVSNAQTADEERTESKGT
In experiment [6] the target is Neuropeptides B/W receptor type 1 (Homo sapiens, UniProt P48145). Description: human NPBW1 receptor blockade, IC50 – cell-based, fluorescence, dose response, set 6, late-stage follow-up (AID 588583). The class given is functional.
Neuropeptides B/W receptor type 1, sequence (P48145 whole entry): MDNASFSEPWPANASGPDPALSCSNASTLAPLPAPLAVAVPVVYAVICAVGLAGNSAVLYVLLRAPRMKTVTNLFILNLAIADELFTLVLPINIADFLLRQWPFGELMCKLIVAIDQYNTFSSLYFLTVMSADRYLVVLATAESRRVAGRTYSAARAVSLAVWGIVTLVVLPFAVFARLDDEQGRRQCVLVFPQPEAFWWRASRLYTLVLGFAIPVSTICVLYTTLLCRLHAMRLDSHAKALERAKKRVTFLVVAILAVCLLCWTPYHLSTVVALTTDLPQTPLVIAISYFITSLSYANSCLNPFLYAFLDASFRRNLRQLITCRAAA
Experiment [7] deals with DNA dC->dU-editing enzyme APOBEC-3G (Homo sapiens, UniProt Q9HC16). Description: inhibition of APOBEC3G ssDNA deamination – biochemical, fluorescence, single-stranded DNA substrate, SAR follow-up (AID 602136). The class given is functional. The conditions noted are these: read-out: IC50_Mean.
DNA dC->dU-editing enzyme APOBEC-3G, sequence (Q9HC16 whole entry): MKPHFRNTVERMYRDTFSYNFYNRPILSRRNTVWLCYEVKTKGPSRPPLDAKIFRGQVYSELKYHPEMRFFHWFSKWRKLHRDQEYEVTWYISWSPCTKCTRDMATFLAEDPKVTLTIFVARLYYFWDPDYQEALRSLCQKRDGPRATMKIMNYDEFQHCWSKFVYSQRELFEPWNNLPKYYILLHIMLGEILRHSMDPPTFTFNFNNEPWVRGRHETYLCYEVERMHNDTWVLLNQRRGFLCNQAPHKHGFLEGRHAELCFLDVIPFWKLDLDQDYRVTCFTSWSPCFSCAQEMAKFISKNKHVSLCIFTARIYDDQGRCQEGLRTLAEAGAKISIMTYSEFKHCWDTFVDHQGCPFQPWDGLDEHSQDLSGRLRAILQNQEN
Experiment [8] deals with DNA dC->dU-editing enzyme APOBEC-3A (Homo sapiens, UniProt P31941). Description: SAR analysis of small molecule inhibitors of APOBEC3A DNA Deaminase via a fluorescence-based single-stranded DNA deaminase assay. The format is functional. The conditions noted are these: read-out: IC50_Mean.
DNA dC->dU-editing enzyme APOBEC-3A, sequence (P31941 whole entry): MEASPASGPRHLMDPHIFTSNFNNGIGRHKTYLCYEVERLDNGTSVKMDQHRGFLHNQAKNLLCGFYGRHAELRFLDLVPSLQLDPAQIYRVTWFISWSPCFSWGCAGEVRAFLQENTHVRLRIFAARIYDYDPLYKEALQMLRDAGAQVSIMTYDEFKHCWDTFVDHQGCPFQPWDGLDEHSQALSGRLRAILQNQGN
The target of experiment [9] is Cyclin-dependent kinase 19 (Homo sapiens, UniProt Q9BWU1). The experiment can be described thus: Navigating the Kinome. Panel member name: CDC2L6. The format is functional.
Experiment [10] addresses Cell division cycle 7-related protein kinase (Homo sapiens, UniProt O00311). The format is functional.
For experiment [11], the target named is T1, Insulin-degrading enzyme (Homo sapiens, UniProt P14735). Description: recombinant IDE activation, cell-free – biochemical, fluorescence polarization, counter-screen for IDE activator project, dose response (AID 588681). (In general: In fluorescence polarisation assays a small probe gives low polarisation when free and higher when bound to something large.)
T1 sequence (P14735 whole entry): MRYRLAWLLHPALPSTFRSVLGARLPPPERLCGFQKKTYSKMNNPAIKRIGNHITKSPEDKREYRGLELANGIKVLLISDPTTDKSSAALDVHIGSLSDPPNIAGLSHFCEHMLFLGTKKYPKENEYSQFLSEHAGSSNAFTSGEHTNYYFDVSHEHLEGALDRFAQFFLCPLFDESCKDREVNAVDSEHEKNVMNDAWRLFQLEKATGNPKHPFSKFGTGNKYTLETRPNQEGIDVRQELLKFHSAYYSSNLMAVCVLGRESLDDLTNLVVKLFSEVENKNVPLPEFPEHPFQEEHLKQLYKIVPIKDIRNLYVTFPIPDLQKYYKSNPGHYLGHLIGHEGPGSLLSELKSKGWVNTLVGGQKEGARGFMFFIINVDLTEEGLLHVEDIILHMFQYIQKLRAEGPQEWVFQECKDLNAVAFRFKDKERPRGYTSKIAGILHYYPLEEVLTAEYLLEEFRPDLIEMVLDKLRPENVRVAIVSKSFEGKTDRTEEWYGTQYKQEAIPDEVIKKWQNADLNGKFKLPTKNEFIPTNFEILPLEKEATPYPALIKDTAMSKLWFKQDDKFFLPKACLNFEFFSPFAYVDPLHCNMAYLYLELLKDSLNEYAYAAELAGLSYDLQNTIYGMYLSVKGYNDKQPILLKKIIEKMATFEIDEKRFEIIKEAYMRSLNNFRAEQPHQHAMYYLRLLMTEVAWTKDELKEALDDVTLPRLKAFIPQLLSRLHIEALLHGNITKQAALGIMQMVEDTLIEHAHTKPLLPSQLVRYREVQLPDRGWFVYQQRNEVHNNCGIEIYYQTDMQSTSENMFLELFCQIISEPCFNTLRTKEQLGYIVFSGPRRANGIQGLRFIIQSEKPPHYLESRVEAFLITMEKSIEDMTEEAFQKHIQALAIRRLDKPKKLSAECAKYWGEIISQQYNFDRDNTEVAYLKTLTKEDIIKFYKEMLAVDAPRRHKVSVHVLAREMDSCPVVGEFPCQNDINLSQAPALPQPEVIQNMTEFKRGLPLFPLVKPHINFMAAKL

For experiment [12], the target named is T1, Insulin-degrading enzyme. The experiment can be described thus: cellular IDE activation of Abeta substrate cleavage – fluorescence polarization, HEK cells, dose response (AID 588439). The class given is functional, cell-based.
Experiment [13] concerns HEK293. Description: membrane integrity loss in HEK cells – cell-based, fluorescence, cytotoxicity control for IDE activator project, dose response (AID 588440).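 Also: cytotoxicity by LDH release measuring loss of membrane integrity.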 The format is functional. The conditions noted are these: Homo sapiens.
Experiment [14] concerns HEK293. Description: optical interference in Abeta FP readout, dose response, artefact control for IDE activator project, biochemical, fluorescence polarization (AID 588442). The class given is functional, cell-based. As to conditions: Homo sapiens.

Serine/threonine-protein kinase TAO1, sequence (Q7L7X3 whole entry): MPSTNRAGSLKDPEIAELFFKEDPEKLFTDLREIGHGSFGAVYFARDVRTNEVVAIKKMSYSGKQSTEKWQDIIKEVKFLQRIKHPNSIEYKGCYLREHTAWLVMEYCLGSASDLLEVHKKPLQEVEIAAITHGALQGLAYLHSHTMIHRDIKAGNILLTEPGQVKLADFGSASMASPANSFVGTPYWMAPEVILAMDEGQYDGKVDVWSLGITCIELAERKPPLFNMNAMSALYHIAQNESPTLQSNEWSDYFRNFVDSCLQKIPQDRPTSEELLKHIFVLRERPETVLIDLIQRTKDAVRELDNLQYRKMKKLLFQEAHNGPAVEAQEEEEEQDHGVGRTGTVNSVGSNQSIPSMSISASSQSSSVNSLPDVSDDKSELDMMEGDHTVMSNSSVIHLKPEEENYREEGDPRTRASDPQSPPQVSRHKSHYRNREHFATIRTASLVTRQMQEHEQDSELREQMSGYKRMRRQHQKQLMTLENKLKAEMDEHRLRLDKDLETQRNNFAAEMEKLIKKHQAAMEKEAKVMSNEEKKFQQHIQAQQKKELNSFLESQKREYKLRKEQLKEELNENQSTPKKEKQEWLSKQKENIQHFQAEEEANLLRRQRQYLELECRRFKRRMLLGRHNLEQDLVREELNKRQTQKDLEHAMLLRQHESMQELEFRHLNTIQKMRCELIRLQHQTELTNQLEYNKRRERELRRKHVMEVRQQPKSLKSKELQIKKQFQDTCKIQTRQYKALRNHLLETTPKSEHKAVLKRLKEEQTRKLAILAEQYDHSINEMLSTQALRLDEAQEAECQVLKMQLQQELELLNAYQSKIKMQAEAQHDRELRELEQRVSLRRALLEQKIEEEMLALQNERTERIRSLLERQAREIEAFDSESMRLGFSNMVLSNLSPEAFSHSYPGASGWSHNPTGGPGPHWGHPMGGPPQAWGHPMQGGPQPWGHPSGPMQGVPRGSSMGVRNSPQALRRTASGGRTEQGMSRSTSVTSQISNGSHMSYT
Cyclin-dependent kinase 8, sequence (P49336 whole entry): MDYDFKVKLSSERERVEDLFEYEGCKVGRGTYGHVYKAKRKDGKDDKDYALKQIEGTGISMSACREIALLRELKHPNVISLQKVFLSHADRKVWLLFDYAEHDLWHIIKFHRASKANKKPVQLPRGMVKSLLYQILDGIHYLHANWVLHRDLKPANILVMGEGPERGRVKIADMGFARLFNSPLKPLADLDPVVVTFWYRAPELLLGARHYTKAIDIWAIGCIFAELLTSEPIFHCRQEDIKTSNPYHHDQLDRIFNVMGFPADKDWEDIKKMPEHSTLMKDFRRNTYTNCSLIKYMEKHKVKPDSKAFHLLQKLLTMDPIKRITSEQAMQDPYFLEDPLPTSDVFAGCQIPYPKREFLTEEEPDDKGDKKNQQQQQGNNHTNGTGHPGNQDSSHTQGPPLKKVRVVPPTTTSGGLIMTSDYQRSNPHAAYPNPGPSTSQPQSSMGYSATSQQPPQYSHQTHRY
Cell division cycle 7-related protein kinase, sequence (O00311 whole entry): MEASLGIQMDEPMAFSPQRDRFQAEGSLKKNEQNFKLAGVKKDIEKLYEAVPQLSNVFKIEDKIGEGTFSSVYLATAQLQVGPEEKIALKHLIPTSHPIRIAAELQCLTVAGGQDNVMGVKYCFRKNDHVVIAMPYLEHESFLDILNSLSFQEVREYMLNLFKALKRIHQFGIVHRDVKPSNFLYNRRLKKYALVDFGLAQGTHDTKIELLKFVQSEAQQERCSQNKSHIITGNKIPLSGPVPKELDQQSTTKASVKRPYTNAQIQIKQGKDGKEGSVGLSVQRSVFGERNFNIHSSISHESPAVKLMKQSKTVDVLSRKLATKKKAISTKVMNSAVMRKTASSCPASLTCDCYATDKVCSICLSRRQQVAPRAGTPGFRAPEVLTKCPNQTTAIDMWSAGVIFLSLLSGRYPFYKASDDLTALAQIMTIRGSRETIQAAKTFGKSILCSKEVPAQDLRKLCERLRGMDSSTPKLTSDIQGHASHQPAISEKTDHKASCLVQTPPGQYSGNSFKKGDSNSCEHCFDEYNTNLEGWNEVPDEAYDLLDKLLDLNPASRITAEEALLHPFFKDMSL

For `CC(C)(C)c1cc(NC(=O)C(=O)c2cccc3ccccc23)n(-c2ccc(OCCC(N)=O)cc2)n1`, the Ki in [1] is 2 µM (active); in experiment [2], > 6.31 µM (inactive); in experiment [3], 1.58 µM (active); in experiment [4], 3.98 µM (active).
Take `CC(C)(C)OC(=O)C(C#N)c1c(Cl)cnn(Cc2cccc3ccccc23)c1=O` (centres undefined): the IC50 in [5] and in experiment [6] was 0.682 µM (active) throughout.
Turning to `COc1cc2c(c3oc(=O)c4c(c13)CCC4)C=CC(C)(C)O2`, the IC50 in [7] and in experiment [8] was > 99 µM (inactive) in each case.
`O=C(O)c1ccccc1Nc1ccnc(NCc2ccccc2)n1`: the figures for the Ki in [9] and in experiment [10] were > 100 µM (inactive) and 0.0501 µM (active), respectively.
On to `Cc1ccc(S(=O)(=O)/N=C/c2cc(Br)ccc2O)cc1`, for which the EC50 on Insulin-degrading enzyme [11], at Insulin-degrading enzyme [12] and in the experiment on HEK293 [14] was > 54.7 µM (inactive) throughout. In addition, the IC50 in the experiment on HEK293 [13] was > 89.1 µM (inactive).
